{"source": "paper PMC7599001", "about": "“The SNAP-tag technology revised: an effective chemo-enzymatic approach by using a universal azide-based substrate” (Journal of Enzyme Inhibition and Medicinal Chemistry, 2020)", "key": {"SsOGT-H^5 [1]": {"molecular_target": "T1, SsOGT-H^5 (Saccharolobus solfataricus, UniProt Q97VW7, G105K/K110E/M106T/R102A/S100A/S132E)", "T1 construct": "His6-tag; made in house; host or cells: E. coli ABLE C", "T1 sequence (Q97VW7 whole entry S100A/R102A/G105K/M106T/K110E/S132E)": "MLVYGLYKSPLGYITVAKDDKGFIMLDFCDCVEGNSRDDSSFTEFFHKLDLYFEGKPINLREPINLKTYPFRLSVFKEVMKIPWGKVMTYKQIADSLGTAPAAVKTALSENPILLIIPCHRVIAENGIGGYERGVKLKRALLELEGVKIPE", "assay": "AGTs' substrate assay by competitive inhibition method with SVG (gel-imaging)", "format": "biochemical", "procedure": "Competitive inhibition assay was performed as described[23]^,[38]. Briefly, by using a fixed concentration of the fluorescent SVG (5 µM) and enzymes (5 µM), an increasing amount of guanine-derivatives (0–2 mM) was added to the mixtures. […] Subsequently, fluorescent bands were measured by gel-imaging on a VersaDoc 4000™ system (Bio-Rad), by applying a blue LED/530 bandpass filter. Obtained data were finally plotted by Equation (1), (1) RF=100%/1+([I]/IC50)^[S] where RF is the obtained Relative Fluorescence, [I] and [S] are the concentration of the inhibitor and the substrate, respectively, and finally the IC50 is the concentration needed to reduce by 50% the fluorescence intensity of the protein band.\n(§1) We evaluated the activity of SNAP-tag® and H^5 enzymes on BGN3 and BGSN3 by the afore-mentioned IC50 method (Figure S5(A,B)) and other O^6-guanine-derivatives (Table 1).\n(§2) Because most of them are non-fluorescent compounds, we performed an AGTs’ competitive inhibition assay by using the fluorescein-derivative SNAP-Vista® Green as substrate (SVG), as previously described[22–24]^,[45]. Briefly, the reaction of an AGT with SVG led to a fluoresceinated protein, which can be visualised as a fluorescent band in gel-imaging analysis after SDS-PAGE. The presence of increasing amounts of a non-fluorescent competitor in the reaction causes a decrease of the fluorescent signals, which can be measured and plotted for the IC50 values determination[23]^,[46]."}, "SNAP-tag® [2]": {"molecular_target": "T2, SNAP-tag® (Homo sapiens, UniProt P16455, A127T/C150S/C62A/G131K/G132T/K125A/M134L/N157G/R128A/R135S/S159E)", "T2 sequence (P16455 1-182 C62A/K125A/A127T/R128A/G131K/G132T/M134L/R135S/C150S/N157G/S159E)": "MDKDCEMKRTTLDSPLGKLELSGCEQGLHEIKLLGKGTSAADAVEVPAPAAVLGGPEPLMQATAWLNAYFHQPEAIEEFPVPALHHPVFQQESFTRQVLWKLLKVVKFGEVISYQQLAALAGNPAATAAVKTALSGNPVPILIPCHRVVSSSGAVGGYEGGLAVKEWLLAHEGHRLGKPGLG", "assay": "AGTs' substrate assay by competitive inhibition method with SVG (gel-imaging)", "format": "biochemical", "settings": "for IC50: SVG 5 µM, enzyme 5 µM, 30 min at 25 °C", "procedure": "Competitive inhibition assay was performed as described[23]^,[38]. Briefly, by using a fixed concentration of the fluorescent SVG (5 µM) and enzymes (5 µM), an increasing amount of guanine-derivatives (0–2 mM) was added to the mixtures. The reactions were incubated for 30 min at 25 °C and 50 °C for SNAP-tag® and H^5 respectively, and loaded on SDS-PAGE. Subsequently, fluorescent bands were measured by gel-imaging on a VersaDoc 4000™ system (Bio-Rad), by applying a blue LED/530 bandpass filter. Obtained data were finally plotted by Equation (1), (1) RF=100%/1+([I]/IC50)^[S] where RF is the obtained Relative Fluorescence, [I] and [S] are the concentration of the inhibitor and the substrate, respectively, and finally the IC50 is the concentration needed to reduce by 50% the fluorescence intensity of the protein band.\nas §1, §2"}, "SsOGT-H^5 [3]": {"molecular_target": "T1, SsOGT-H^5", "settings": "cited from earlier work"}, "SNAP-tag® [4]": {"molecular_target": "T2, SNAP-tag®", "set-up": "method as in PMID 18291317, PMID 26499124", "settings": "25 °C; obtained by using a BG-fluorescein substrate (BG-FL) very similar to SVG; cited from earlier work"}, "[5]": {"tested_on": "HEK293T cells transfected with SNAP-tag® plasmid", "assay": "Permeability of eukaryotic cells to BGSN3 (lysates then incubated with SVG, gel-imaging)", "format": "cell-based", "procedure": "HEK293T cells were maintained at 37 °C with 5% CO2 in Dulbecco’s Modified Essential Medium (Invitrogen, Carlsbad, CA) supplemented with 10% Foetal Bovine Serum (FBS) (Invitrogen) and 100 U/ml Penicillin/Streptomycin (Roche, Switzerland). HEK293T cells were transfected with SNAP-tag® plasmid by using Lipofectamine 2000 (Invitrogen) following manufacturer’s protocol. The treatment with BGSN3 were performed, at the concentration and time indicated for each experiment. Twenty-four hours after transfection, we treated cells with BGSN3 for 2 h at different concentrations ranging (from 1 to 25 µM), directly dissolving the compound in complete culture medium. Then cells were harvested, washed with PBS 1× buffer and lysed with 50 mM Tris-HCl pH 7.4, 150 mM NaCl, 0.5 mM EDTA, 0.1% Triton X-100 supplemented with complete protease (Roche, Switzerland) and phosphatase (SERVA Electrophoresis, Germany) inhibitors. Afterwards, transfected cells were treated with a fixed concentration of BGSN3 (10 µM) at different time points (from 30 to 120 min). Again, HEK293T cells were washed and lysed as described before. […] Subsequently, proteins were loaded on SDS-PAGE and analysed by gel-imaging on a VersaDoc 4000™ system (Bio-Rad), by applying a blue LED/530 bandpass filter (Figure 6)."}, "[6]": {"settings": "SVG 5 µM, enzyme 5 µM, 30 min at 50 °C, read-out: IC50"}}, "note": "Where two headings read alike, the source gives them in different places.", "data": [{"compound": "SNAP Cell^® 430 [SC430]", "values": [{"measurement": "competition with SVG", "setting": "SsOGT-H^5 [1]; competitive inhibition assay", "value": "completely lost the competition with SVG"}, {"measurement": "competition with SVG", "setting": "SNAP-tag® [2]; competitive inhibition assay", "value": "completely lost the competition with SVG"}]}, {"compound": "BG-PEG-NH2 [BGPA]", "values": [{"measurement": "IC50", "setting": "SsOGT-H^5 [1]; [6]", "value": "14.3 ± 1.9", "unit": "µM"}, {"measurement": "IC50", "setting": "SNAP-tag® [2]", "value": "86 ± 6.7", "unit": "µM"}]}, {"compound": "SNAP Cell^® Block [SCB]", "values": [{"measurement": "IC50", "setting": "SsOGT-H^5 [1]; [6]", "value": "4.4 ± 0.8", "unit": "µM"}, {"measurement": "IC50", "setting": "SNAP-tag® [2]", "value": "2.1 ± 0.5", "unit": "µM"}]}, {"compound": "SNAP-Vista^® Green [SVG]", "values": [{"measurement": "k (second order rate constant of the enzymatic reaction)", "setting": "SsOGT-H^5 [3]", "value": 16000, "unit": "M⁻¹ s⁻¹"}, {"measurement": "k (second order rate constant of the enzymatic reaction)", "setting": "SNAP-tag® [4]", "value": "2.8 × 10^4 b s^−1 M^−1"}]}, {"compound": "Nc1nc(OCc2ccccc2)c2nc[nH]c2n1", "note": "[BG, O^6-benzyl-guanine]", "values": [{"measurement": "IC50", "setting": "SsOGT-H^5 [1]; [6]", "value": "10.1 ± 1", "unit": "µM"}]}, {"compound": "[N-]=[N+]=NCc1ccc(COc2nc(N)nc3nc[nH]c23)cc1", "note": "[BGN3, O^6-BG-N3]", "values": [{"measurement": "IC50", "setting": "SsOGT-H^5 [1]; [6]", "value": "23.5 ± 1", "unit": "µM"}, {"measurement": "IC50", "setting": "SNAP-tag® [2]", "value": "15.6 ± 0.3", "unit": "µM"}]}, {"compound": "methyl-guanine-PEG-NH2 [MGPA]", "values": [{"measurement": "IC50", "setting": "SsOGT-H^5 [1]; competitive assay for H^5 performed at 65 °C, read-out: IC50", "value": "269 ± 19.1", "unit": "µM"}]}, {"compound": "[N-]=[N+]=NCCCC(=O)NCc1ccc(COc2nc(N)nc3[nH]cnc23)cc1", "note": "[BGSN3, N-(4-(((2-amino-9H-purin-6-yl)oxy)methyl)benzyl)-4-azidobutanamide]", "values": [{"measurement": "concentration for internalisation (absence of SVG signal)", "setting": "[5]; 2 h treatment in culture medium", "value": "< 5", "unit": "µM"}, {"measurement": "time of internalisation", "setting": "[5]; BGSN3 10 µM in culture medium", "value": "ca. 30 min"}, {"measurement": "IC50", "setting": "SsOGT-H^5 [1]", "value": "10 ± 0.7", "unit": "µM"}, {"measurement": "IC50", "setting": "SNAP-tag® [2]", "value": "17.8 ± 1.1", "unit": "µM"}]}]}
